In patent publication US20170298380A1, “IMIDAZOLINONE HERBICIDE RESISTANT BORAGE” (Bioriginal Food & Science Corp., priority 2016, published 2017):
Entries after “also recorded” stand apart in the source; their conditions may differ. Where two headings read alike, the source gives them in different places.

Experiments:
borage seeds (M1) = format: in vivo, Borago officinalis
Protocol: Approximately 164000 borage seeds were divided into 6 groups for mutagenesis. The seeds (M1) were soaked in 0.5%, 1.0% and 1.5% (v/v) of EMS solutions for 8 hours and 16 hours respectively, and then rinsed with tap water for 4 hours. After washing, the seeds are dried with paper towel. The mutagenized seeds were sowed in 48 plots in a research farm in Saskatoon, SK, in June, 2012. Each plot was 7.5×1.5 m in size and sowed 86 g of mutagenized seeds. M1 borage plants were grown to maturity and M2 seeds were harvested by groups according to the EMS treatments.

[1] = system: M4 homozygous imidazolinone-resistant borage (AHAS1 mutant); format: in vivo, Borago officinalis; details: AHAS1 mutant line, 2X of the recommended rate, 21 days after spraying
Protocol: Adjuvant reagent for each herbicide was added into spray solution accordingly. Sprayed M4 borage plants were visually evaluated at 21 days after spraying by comparing with wild-type controls.

[2] = system: AHAS enzyme of homozygous resistant borage (AHAS1 mutant); assay: In vitro AHAS activity assay, resistant (AHAS1 mutant) borage leaf protein extract; format: biochemical, Borago officinalis; details: across all imazamox concentrations (0-625 μM)
From the text: (§1) The herbicide imazamox is an inhibitor of the AHAS enzyme. […] It has been shown from the above Examples that the AHAS1 mutant borage line can tolerate two times the recommended dosage of “Solo” herbicide and the tolerance is caused by the single nucleotide mutation of the AHAS1 gene. As such, the AHAS activity level of the mutant plants would provide further evidence to support the conclusion. AHAS enzyme activity is generally measured using a discontinuous colorimetric assay based on the method developed by Singh et al. (Singh B K, et al. Assay of acetohydroxyacid synthase. Analytical Biochemistry 171 (1988) 173-179). In this method, the crude protein is incubated with the substrate for a fixed time to generate intermediate acetolactate that is then converted to acetoin under decarboxylation. Finally, the reaction of acetoin with creatine and α-naphthol forms a pink-colored product which can be measured at 520 nm wavelength in a spectrometer. As a result, the AHAS activity level can be estimated based on the color density. See Duggleby R G and Pang S S. (2000) supra. […]
(§2) The gummy protein layer was re-dissolved in 1.4 mL incubation buffer containing 50 mM K2HPO4 buffer (pH 7.0), 100 mM sodium pyruvate, 10 mM MgCl2, 1 mM TPP and 1 μM FAD. The amount of protein in each sample was determined immediately by the Bio-Rad protein assay using a dye reagent (#500-0006). […]

[3] = system: AHAS enzyme of susceptible borage (wild-type); assay: In vitro AHAS activity assay, susceptible (wild-type) borage leaf protein extract; format: biochemical, Borago officinalis; details: 625 μM imazamox
From the text: as §1, §2

Q: How did the “Germination Rate (%)” value (borage seeds (M1); 0.5% EMS 8 hrs) turn out when `CCOS(C)(=O)=O` [EMS, ethyl methanesulfonate] was run?
A: 19%

Q: What about the “Germination Rate (%)” value (borage seeds (M1); 0.5% EMS 16 hrs) of the same molecule?
A: 8%

Q: And the “Germination Rate (%)” value (borage seeds (M1); 1.0% EMS 8 hrs)?
A: 15%

Q: And the “Germination Rate (%)” value (borage seeds (M1); 1.0% EMS 16 hrs)?
A: 9%

Q: What about the “Germination Rate (%)” value (borage seeds (M1); 1.5% EMS 8 hrs) of the same molecule?
A: 11%

Q: And the “Germination Rate (%)” value (borage seeds (M1); 1.5% EMS 16 hrs)?
A: 8%

Q: And the germination rate (borage seeds (M1); all EMS-treated M1 seeds sown in the field)?
A: about 12%

Q: And the “sterility of M1” value (borage seeds (M1); in vivo)?
A: pronounced sterility

Q: For `COc1nn(C(=O)[N-]S(=O)(=O)c2ccccc2OC(F)(F)F)c(=O)n1C.[Na+]` [flucarbazone sodium], which “level of resistance / tolerance (in words)” value [1] is on record?
A: some tolerance

Q: Which results are given for `COCc1cnc(C2=NC(C)(C(C)C)C(=O)N2)c(C(=O)O)c1` (stereo not shown) [imazamox, 2-[4,5-dihydro-4-methyl-4-(1-methylethyl)-5-oxo-1H-imidazol-2-yl]-5-(methoxymethl)-3-pyridinecarboxylic acid.]?
A: AHAS activity of mutant compared with wild type [2]: significantly higher AHAS activity than the wild type borage; level of resistance / tolerance (in words) [1]: strong resistance; also recorded: equally strong resistant level; AHAS activity retained [3]: zero and completely inhibited

Q: How did the “level of resistance / tolerance (in words)” value [1] turn out when `CCc1cnc(C2=NC(C)(C(C)C)C(=O)N2)c(C(=O)O)c1` (stereo not shown) [imazethapyr, 2-[4.5-dihydro-4-methyl-4-(1-methylethyl)-5-oxo-1H-imidazol-2-yl]-5-ethyl-3-pyridinecarboxylic acid] was run?
A: strong resistance; also recorded: equally strong resistant level
